Literature values in patent US7799540B2, “Method of producing lycopene through the fermentation of selected strains of Blackeslea trispora, formulations and uses of the lycopene thus obtained” (Vitatene, S.A., priority 2001, dated 2010).

Conditions: rats; Matos H.R. et al. (2001)

CC(C)=CCC/C(C)=C/C=C/C(C)=C/C=C/C(C)=C/C=C/C=C(C)/C=C/C=C(C)/C=C/C=C(\C)CCC=C(C)C [lycopene, Lycopene]
effect on harmful effect of ferric nitriloacetate on DNA: inhibits the harmful effect of ferric nitriloacetate on DNA | effect on necrosis of the liver: prevents necrosis of the liver
